Where a SMILES comes first, the peptide text is derived from it. Bridges are numbered along the chain shown (N, C = ends). Where no end group is shown, it is not given here.
How the values were obtained:
[1] = molecular target: T1, human PAC1 receptor (Homo sapiens, UniProt P41586); assay: LANCE Ultra cAMP accumulation antagonist assay in SHSY-5Y cells; assay type: cell-based;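 also: inhibition of cAMP accumulation evoked by PAC1 agonist at its EC80 in SHSY-5Y cells endogenously expressing receptor, 30 min preincubation then 15 min agonist, TR-FRET readout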
T1 construct: SHSY-5Y (human neuroblastoma cell line) and RG-2 (rat glioma cell line) cells endogenously express human and rat PAC1 receptors, respectively; endogenous in cells; host or cells: SHSY-5Y human neuroblastoma cells
T1 sequence (P41586 21-468): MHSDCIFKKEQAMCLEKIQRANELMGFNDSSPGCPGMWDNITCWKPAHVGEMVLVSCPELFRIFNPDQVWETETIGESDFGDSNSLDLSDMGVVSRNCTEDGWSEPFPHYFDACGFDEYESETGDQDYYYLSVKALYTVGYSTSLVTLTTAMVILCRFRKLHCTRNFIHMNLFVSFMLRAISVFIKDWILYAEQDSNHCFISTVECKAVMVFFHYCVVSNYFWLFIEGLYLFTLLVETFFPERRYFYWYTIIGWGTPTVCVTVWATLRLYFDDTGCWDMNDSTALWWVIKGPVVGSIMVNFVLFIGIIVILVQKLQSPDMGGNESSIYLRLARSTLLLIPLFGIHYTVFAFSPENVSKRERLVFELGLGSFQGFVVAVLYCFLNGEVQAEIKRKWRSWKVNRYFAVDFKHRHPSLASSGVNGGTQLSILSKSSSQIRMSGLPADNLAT

[2] = molecular target: T2, rat PAC1 receptor (Rattus norvegicus, UniProt P32215); assay: LANCE Ultra cAMP accumulation antagonist assay in RG-2 cells; assay type: cell-based;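 also: RG-2 rat glioma cells endogenously expressing PAC1, test peptide preincubated 30 min, then PAC1 agonist added at its EC80 for 15 min, cAMP accumulation read by LANCE Ultra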
T2 construct: SHSY-5Y (human neuroblastoma cell line) and RG-2 (rat glioma cell line) cells endogenously express human and rat PAC1 receptors, respectively; endogenous in cells; host or cells: RG-2 rat glioma cells
T2 sequence (P32215 20-523): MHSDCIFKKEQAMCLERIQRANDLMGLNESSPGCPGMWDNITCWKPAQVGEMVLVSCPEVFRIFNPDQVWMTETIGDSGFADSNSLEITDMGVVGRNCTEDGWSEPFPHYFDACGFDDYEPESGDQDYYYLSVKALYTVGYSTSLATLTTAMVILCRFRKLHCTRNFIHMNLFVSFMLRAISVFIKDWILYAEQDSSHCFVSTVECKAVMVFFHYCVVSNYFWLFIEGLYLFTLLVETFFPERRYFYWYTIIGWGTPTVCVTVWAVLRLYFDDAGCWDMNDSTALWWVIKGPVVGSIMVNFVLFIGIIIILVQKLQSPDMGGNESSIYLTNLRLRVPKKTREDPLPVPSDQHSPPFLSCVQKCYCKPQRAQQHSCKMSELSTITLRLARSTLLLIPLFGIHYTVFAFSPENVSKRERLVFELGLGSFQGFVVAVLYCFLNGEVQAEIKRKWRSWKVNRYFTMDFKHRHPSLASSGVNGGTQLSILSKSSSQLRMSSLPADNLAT
Procedure: In order to determine the potency of peptide antagonists at the PAC1 receptor, functional cAMP accumulation assays using LANCE Ultra cAMP assay kit to measure the agonist and antagonist activity of PAC1 peptides were used. SHSY-5Y (human neuroblastoma cell line) and RG-2 (rat glioma cell line) cells endogenously express human and rat PAC1 receptors, respectively. Agonist activity of PAC1 peptides was tested by incubating with SHSY-5Y at 2,000 cells per well or RG-2 at 5,000 cells per well for 15 minutes at room temperature. PAC1 receptor agonist PACAP38 or maxadilan was included as a positive control. The reaction was stopped by adding detection mixture, europium (Eu) chelate-labeled cAMP tracer and cAMP-specific monoclonal antibodies labeled with the ULight™ dye, to all wells followed by a 60-minute incubation at room temperature. The assay plates were then read on an EnVision instrument at an emission wavelength of 665 and 615 nm and data were analyzed using Genedata Screener or GraphPad Prism software. A similar procedure was used in the antagonist assays by using a fixed concentration of PAC1 agonist. The concentrations of agonists were chosen based on their ECK) values at PAC1 receptors in SHSY-5Y or RG-2 cells. SHSY-5Y or RG-2 cells were added into 96-well half-area white plates. Serially diluted PAC1 peptides at ten concentrations were added and incubated for 30 minutes at room temperature. PAC1 agonist at EC80 concentration was then added and further incubated for 15 minutes at room temperature. The reaction was stopped by adding detection mixture to all wells followed by a 60-minute incubation at room temperature. The assay plates were read and analyzed the same way as that of agonist assay. Cells, agonists, and PAC1 peptides were prepared in freshly made assay buffer (F-12, 0.5 mM IBMX, 0.1 or 0.4% BSA (pH 7.4)). Detection mixture was made by mixing a 1/50 dilution of the Eu-cAMP tracer stock solution in cAMP Detection Buffer and a 1/150 dilution of the ULight-anti-cAMP stock solution in cAMP Detection Buffer. Europium (Eu) chelate-labeled cAMP tracer, cAMP-specific monoclonal antibodies labeled with the ULight™ dye, BSA, and detection buffer were provided in LANCE Ultra cAMP Kit from PerkinElmer

In the case of `CC[C@H](C)[C@H](NC(=O)[C@H](C)NC(=O)[C@H](CCCCN)NC(=O)[C@H](CCCNC(=N)N)NC(=O)[C@H](Cc1ccccc1)NC(=O)[C@H](CCC(N)=O)NC(=O)[C@@H]1CSSC[C@H](N)C(=O)N[C@@H](CC(=O)O)C(=O)N[C@@H](C)C(=O)N[C@@H]([C@@H](C)O)C(=O)N1)C(=O)N[C@@H](CC(=O)O)C(=O)N[C@@H](CC(=O)O)C(=O)N[C@H]1CSSC[C@@H](C(=O)N[C@@H](CCSC)C(=O)N[C@@H](CCCCN)C(=O)N[C@@H](CCC(N)=O)C(=O)N[C@@H](CCCCN)C(=O)N[C@@H](CCCCN)C(=O)N[C@@H](CCCCN)C(=O)N[C@@H](CCC(=O)O)C(=O)N[C@@H](Cc2ccccc2)C(=O)N[C@@H](CCCCN)C(N)=O)NC(=O)[C@H](CCC(=O)O)NC(=O)[C@H](CCCCN)NC(=O)[C@H](Cc2ccccc2)NC(=O)[C@H](CO)NC(=O)[C@H](CC(N)=O)NC(=O)[C@H](CO)NC(=O)[C@H](Cc2c[nH]cn2)NC(=O)[C@H](Cc2c[nH]cn2)NC(=O)[C@H](C)NC(=O)[C@H](CCC(N)=O)NC(=O)[C@H](CCCCN)NC(=O)[C@H](CCC(N)=O)NC1=O` [compound 224] (H-CDATCQFRKAIDDCQKQAHHSNSFKECMKQKKKEFK-NH2; disulfide 1-5, 14-27), the IC50 [1] is reported as 0.01 to 1 nM and the IC50 [2] is reported as 1 to 100 nM.
For “CDATCQFRKAIDDCYKQAHHSNVPGSVFKACMKQKKKEFKAGH (disulfide 1-5, 14-31) [compound 47]”, the IC50 [1] was 0.01 to 1 nM and the IC50 [2] was 0.01 to 1 nM.
In the case of “CDATCQFRKAIDDCVRQAHHSNVPGSVFKACMKQKKKEWKAN (disulfide 1-5, 14-31) [compound 87]”, the IC50 [1] is reported as 0.01 to 1 nM and the IC50 [2] is reported as 0.01 to 1 nM.
With “CDATCQFRKAIDDCMLFSWHSNVPGSVFKACMKQKKKEFKAG-NH2 (disulfide 1-5, 14-31) [compound 131]” the IC50 [1] was 0.01 to 1 nM and the IC50 [2] was 0.01 to 1 nM.
“CDATCQFRKAIDDCMWFAWHSNVPGSVFKACMKQKKKEFKAG-NH2 (disulfide 1-5, 14-31) [compound 122]” gave an IC50 [1] of 0.01 to 1 nM and an IC50 [2] of 0.01 to 1 nM.
“CDATCQFRKAIDDCWIVAWHANVPGSVFKACMKQKKKEFKAG-NH2 (disulfide 1-5, 14-31) [compound 129]” showed an IC50 [1] of 0.01 to 1 nM and an IC50 [2] of 0.01 to 1 nM.
For “CDATCQFRKAIDDCVRQAHHSNVPGSVWKACMKQKKKEWKAGH (disulfide 1-5, 14-31) [compound 106]”, the IC50 [1] was 0.01 to 1 nM and the IC50 [2] was 0.01 to 1 nM.
Molecule `CSCC[C@@H]1NC(=O)[C@H](C)NC(=O)[C@H](C(C)C)NC(=O)[C@H](CCCCN)NC(=O)[C@H](CCCCN)NC(=O)[C@H](Cc2ccc(O)cc2)NC(=O)[C@H](CC(C)C)NC(=O)[C@@H](NC(=O)[C@H](C)NC(=O)[C@@H](NC(=O)[C@H](CC(C)C)NC(=O)CNC(=O)[C@H](CCCCN)NC(=O)[C@H](CCCNC(=N)N)NC(=O)[C@H](Cc2ccc(O)cc2)NC(=O)[C@H](CCC(N)=O)NC(=O)[C@@H]2CSSC[C@H](N)C(=O)N[C@@H](CC(=O)O)C(=O)N[C@@H](C)C(=O)N[C@@H]([C@@H](C)O)C(=O)N2)C(C)C)CSSC[C@@H](C(=O)N[C@@H](CCSC)C(=O)N[C@@H](CCCCN)C(=O)N[C@@H](CCC(N)=O)C(=O)N[C@@H](CCCCN)C(=O)N[C@@H](CCCCN)C(=O)N[C@@H](CCCCN)C(=O)N[C@@H](CCC(=O)O)C(=O)N[C@@H](Cc2c[nH]c3ccccc23)C(N)=O)NC(=O)[C@H](C)NC(=O)[C@H](CCCCN)NC(=O)[C@H](Cc2ccccc2)NC(=O)[C@H](C(C)C)NC(=O)[C@H](CO)NC(=O)[C@H](Cc2ccc(O)cc2)NC(=O)[C@H](CCCNC(=N)N)NC(=O)[C@H](CCCCN)NC(=O)[C@H](CCC(N)=O)NC1=O` [compound 427] (H-CDATCQYRKGLVACLYKKVAMQKRYSVFKACMKQKKKEW-NH2; disulfide 1-5, 14-31) has an IC50 [1] of 1 to 100 nM and an IC50 [2] of 1 to 100 nM.
Molecule “CDATCQFRKAIDDCVFWAAHSNVPGSVFKACMKQKKKEFKAG-NH2 (disulfide 1-5, 14-31) [compound 136]” has an IC50 [1] of 0.01 to 1 nM and an IC50 [2] of 0.01 to 1 nM.
“CDATCQFRKAIDDCQKQAHHSNVPGSVFKACMKQKKKEFKAQ (disulfide 1-5, 14-31) [compound 96]” gave an IC50 [1] of 1 to 100 nM and an IC50 [2] of 0.01 to 1 nM.
Work on “CDATCQFRKAIDDCAKQAHHSNVPGSVFKACMKQKKKEFKAGY (disulfide 1-5, 14-31) [SEQ ID NO 56]” yielded an IC50 [1] of 0.01 to 1 nM and an IC50 [2] of 0.01 to 1 nM.
`CC[C@H](C)[C@H](NC(=O)[C@H](C)NC(=O)[C@H](CCCCN)NC(=O)[C@H](CCCNC(=N)N)NC(=O)[C@H](Cc1ccccc1)NC(=O)[C@H](CCC(N)=O)NC(=O)[C@@H]1CSSC[C@H](N)C(=O)N[C@@H](CC(=O)O)C(=O)N[C@@H](C)C(=O)N[C@@H]([C@@H](C)O)C(=O)N1)C(=O)N[C@@H](CC(=O)O)C(=O)N[C@@H](CC(=O)O)C(=O)N[C@H]1CSSC[C@@H](C(=O)N[C@@H](CCSC)C(=O)N[C@@H](CCCCN)C(=O)N[C@@H](CCC(N)=O)C(=O)N[C@@H](CCCCN)C(=O)N[C@@H](CCCCN)C(=O)N[C@@H](CCCCN)C(=O)N[C@@H](CCC(=O)O)C(=O)N[C@@H](Cc2ccccc2)C(=O)N[C@@H](CCCCN)C(=O)N[C@@H](C)C(=O)NCC(=O)N[C@@H](Cc2ccc(O)cc2)C(=O)O)NC(=O)[C@H](C)NC(=O)[C@H](CCCCN)NC(=O)[C@H](Cc2ccccc2)NC(=O)[C@H](C(C)C)NC(=O)[C@H](CO)NC(=O)[C@H](CO)NC(=O)[C@H](Cc2c[nH]cn2)NC(=O)[C@H](C)NC(=O)[C@H](CCC(N)=O)NC(=O)[C@H](CCCCN)NC(=O)[C@H](C)NC1=O` [compound 37] (H-CDATCQFRKAIDDCAKQAHSSVFKACMKQKKKEFKAGY-OH; disulfide 1-5, 14-26) showed an IC50 [1] of 1 to 100 nM and an IC50 [2] of 0.01 to 1 nM.
`CC[C@H](C)[C@H](NC(=O)[C@H](C)NC(=O)[C@H](CCCCN)NC(=O)[C@H](CCCNC(=N)N)NC(=O)[C@H](Cc1ccccc1)NC(=O)[C@H](CCC(N)=O)NC(=O)[C@@H]1CSSC[C@H](N)C(=O)N[C@@H](CC(=O)O)C(=O)N[C@@H](C)C(=O)N[C@@H]([C@@H](C)O)C(=O)N1)C(=O)N[C@@H](CC(=O)O)C(=O)N[C@@H](CC(=O)O)C(=O)N[C@H]1CSSC[C@@H](C(=O)N[C@@H](CCSC)C(=O)N[C@@H](CCCCN)C(=O)N[C@@H](CCC(N)=O)C(=O)N[C@@H](CCCCN)C(=O)N[C@@H](CCCCN)C(=O)N[C@@H](CCCCN)C(=O)N[C@@H](CCC(=O)O)C(=O)N[C@@H](Cc2ccccc2)C(=O)N[C@@H](CCCCN)C(=O)N[C@@H](C)C(=O)NCC(=O)N[C@@H](Cc2ccc(O)cc2)C(=O)O)NC(=O)[C@H](C)NC(=O)[C@H](CCCCN)NC(=O)[C@H](Cc2ccccc2)NC(=O)[C@H](C(C)C)NC(=O)[C@H](CO)NC(=O)[C@H](CO)NC(=O)[C@H](Cc2c[nH]cn2)NC(=O)[C@H](Cc2ccc(O)cc2)NC(=O)[C@H](C)NC(=O)[C@H](CCC(N)=O)NC(=O)[C@H](CCCCN)NC(=O)[C@H](C)NC1=O` [compound 30] (H-CDATCQFRKAIDDCAKQAYHSSVFKACMKQKKKEFKAGY-OH; disulfide 1-5, 14-27) was tested, and the IC50 [1] was 0.01 to 1 nM and the IC50 [2] was 0.01 to 1 nM.
“CDATCQFRKAIDDCWVIAWHSNVPGSVFKACMKQKKKEFKAG-NH2 (disulfide 1-5, 14-31) [compound 130]” gave an IC50 [1] of 0.01 to 1 nM and an IC50 [2] of under 0.01 nM.
In the case of “CDATCQFRKAIDDCYWQAIHANVPGSVWKACMKQKKKEFKAG-NH2 (disulfide 1-5, 14-31) [compound 138]”, the IC50 [1] is reported as 0.01 to 1 nM and the IC50 [2] is reported as 0.01 to 1 nM.
In the case of “CDATCQFRKAIDDCAKQAHHSNVPGSVFKACIKQKKKEFKAG-NH2 (disulfide 1-5, 14-31) [compound 14]”, the IC50 [1] is reported as 0.01 to 1 nM and the IC50 [2] is reported as 0.01 to 1 nM.
“CDATCQFRKAIDDCQKQAHHSNVPGSVFKACMKQKKKEFKAGHHHHHH (disulfide 1-5, 14-31) [compound 160]” showed an IC50 [1] of 1 to 100 nM and an IC50 [2] of 0.01 to 1 nM.
With “CDATCQFRKAIDDCWVQAWHSNVPGSVFKACMKQKKKEFKAG-NH2 (disulfide 1-5, 14-31) [compound 134]” the IC50 [1] was 0.01 to 1 nM and the IC50 [2] was 0.01 to 1 nM.
Work on “CDATCQFRKAIDDCAKQAHHANVPGSVFKACMKQKKKEFKAG-NH2 (disulfide 1-5, 14-31) [compound 13]” yielded an IC50 [1] of 0.01 to 1 nM and an IC50 [2] of 0.01 to 1 nM.
For “SDATSQYRKGLVACLYKKVAMQKRYSVFKACMKQKKKEWKAG-NH2 (disulfide 14-31) [compound 426]”, the IC50 [1] was 1 to 100 nM and the IC50 [2] was 0.01 to 1 nM.
With “CDATCQFRKAIDDCWIVAWHSNVPGSVFKACMKQKKKEFKAG-NH2 (disulfide 1-5, 14-31) [compound 73]” the IC50 [1] was 0.01 to 1 nM and the IC50 [2] was 0.01 to 1 nM.
“CDATCQFRKAIDDCVWFAWHSNVPGSVFKACMKQKKKEFKAG-NH2 (disulfide 1-5, 14-31) [compound 148]” showed an IC50 [1] of 0.01 to 1 nM and an IC50 [2] of 0.01 to 1 nM.
Molecule “CDATCQFRKAIDDCQKQAHHSNVPGSVFKACLLQKKKEFKAG-NH2 (disulfide 1-5, 14-31) [compound 100]” has an IC50 [1] of 1 to 100 nM and an IC50 [2] of 1 to 100 nM.
Molecule “CDATCQFRKAIDDCAKQAHHSNVPGSVFKACMKQKKKEFKAGH (disulfide 1-5, 14-31) [compound 57]” has an IC50 [1] of 0.01 to 1 nM and an IC50 [2] of 0.01 to 1 nM.

Source: patent publication US20210395313A1, “PEPTIDE PAC1 ANTAGONISTS” (AMGEN INC., priority 2017, published 2021)
